# Tests used:
# 231-BR-HER2 cells = assay: Brain metastasis xenograft, 231-BR-HER2 model: metastases counted in H&E-stained brain sections; conditions: for fewer large metastases than vehicle / fewer micrometastases than vehicle: 231-BR-HER2 cells, p<0.05; for large metastases # / Micro metastases #: 231-BR-HER2 model; for large metastases #: >50 μm^2; for Micro metastases #: ≦50 μm^2
# in vivo = conditions: BALB/c nude, mouse, po
# Procedure: Blood and whole brain of the mice were harvested 6 hours after the last treatment. Plasma was isolated from blood by centrifugation at 3000 rpm for 10 min at 4° C. Half of each brain was flash frozen using liquid nitrogen. All plasma and brain samples were stored at −80° C. until analysis by HPLC-MS/MS.
# The separation was performed by injecting 10 μL of the sample on Acquity HPLC BEH C18 column (50×2.1 mm I.D., 1.7 μm, Waters, Milford, Mass., USA). […] The flow rate was 0.45 mL/min using a column temperature of 45° C.
# The blood and whole brain of the mice were harvested six hours after the last treatment and the drug concentrations were measured by HPLC-MS/MS.
# [1] = reported (Porkka et al., 2008); cited from earlier work
# 231-BR-vector cells = assay: Brain metastasis xenograft, 231-BR-vector model: metastases counted in H&E-stained brain sections; conditions: for large metastases # / Micro metastases #: 231-BR-vector model; for large metastases #: >50 μm^2; for Micro metastases #: ≦50 μm^2
# Text: Treatment started 3 days after cell injection.
# Brain sections (10 μm thick) were serially sectioned.
# Mice received 28 days treatment, and all mice were sacrificed, and brains were harvested for ex vivo whole-brain fluorescent imaging of EGFP-positive brain metastases.
# [2] = 25 mg/kg once daily oral 28 days
# [3] = 50 mg/kg once daily oral 28 days
# [4] = 40 mg/kg once daily oral 28 days
# [5] = 80 mg/kg once daily oral 28 days
compound,measurement,setting,value
Cc1nc(Nc2ncc(C(=O)Nc3c(C)cccc3Cl)s2)cc(N2CCN(CCO)CC2)n1 [Dasatinib],fewer large metastases than vehicle,231-BR-HER2 cells; 25 or 50 mg/kg body weight,38.1-56.9%
same,fewer micrometastases than vehicle,231-BR-HER2 cells; 25 or 50 mg/kg body weight,40.2-61.4%
same,large metastases #,231-BR-HER2 cells; [2],12.5 ± 1.8
same,Micro metastases #,231-BR-HER2 cells; [2],175.7 ± 27.8
same,large metastases #,231-BR-HER2 cells; [3],8.7 ± 1.6
same,Micro metastases #,231-BR-HER2 cells; [3],113.2 ± 23.8
same,Kp at 336 h,in vivo,0.06 to 0.12
same,BBB crossing,[1],able to cross the BBB
same,fewer micrometastases than vehicle,"231-BR-vector cells; 231-BR-vector cells, 25 or 50 mg/kg body weight, p<0.05",33.8-54.4%
same,fewer large metastases than vehicle,"231-BR-vector cells; 231-BR-vector cells, 25 or 50 mg/kg, p<0.05",41.9-49.3%
same,large metastases #,231-BR-vector cells; [2],8.6 ± 1.5
same,Micro metastases #,231-BR-vector cells; [2],144.6 ± 12.5
same,large metastases #,231-BR-vector cells; [3],7.5 ± 1.3
same,Micro metastases #,231-BR-vector cells; [3],99.5 ± 10.3
CCN(CC)CCNC(=O)c1c(C)[nH]c(/C=C2\C(=O)Nc3ccc(F)cc32)c1C [Sunitinib],fewer large metastases than vehicle,231-BR-HER2 cells; 40 or 80 mg/kg body weight,22.7-24.8%
same,fewer micrometastases than vehicle,231-BR-HER2 cells; 40 or 80 mg/kg body weight,22.3-31.9%
same,Micro metastases #,231-BR-HER2 cells; [4],228.1 ± 28.3
same,Micro metastases #,231-BR-HER2 cells; [5],199.8 ± 24.1
same,Kp at 336 h,in vivo,0.24 to 0.31
same,fewer large metastasis than vehicle,"231-BR-vector cells; 231-BR-vector cells, 80 mg/kg body weight, p<0.05",31%
same,fewer micrometastases than vehicle,"231-BR-vector cells; 231-BR-vector cells, 40 or 80 mg/kg body weight, p<0.05",28.5-31.3%
same,large metastases #,231-BR-vector cells; [4],11.8 ± 2.0
same,large metastases #,231-BR-vector cells; [5],10.2 ± 1.3
same,Micro metastases #,231-BR-vector cells; [5],150.2 ± 22

# Reference: patent US9651554B2, “Molecular diagnostic methods for predicting brain metastasis of breast cancer” (The Methodist Hospital Research Institute, priority 2010, dated 2017)
